Data set [1] concerns U2OS cells. The data set is described as follows: Analysis of micronuclei. Format: cell-based. Conditions: 48 h. The protocol:
5 Small-molecule inhibitors of MUS81 mimic the effect of siRNA-mediated MUS81 depletion in cells. (A) U2OS cells were treated with DMSO, MUS81-targeting siRNA, MU262, MU876, or their respective control analogues for 48 h. Cytochalasin B (1.25 μg/mL) was added 16 h before harvest to prevent cytokinesis. […] (B) Representative images corresponding to the selected conditions from (A). (C) U2OS and (D) HeLa cells were incubated with DMSO, the indicated inhibitors, and their respective control analogues for 48 h. Nocodazole (200 ng/mL) was added for 5 h prior to the end of treatment to arrest cells in mitosis. Mitotic cells were collected by shake-off, and telomere fragility events (TFEs) were quantified manually for each metaphase spread. At least 70 metaphase spreads were quantified per condition. n = 3; error bars represent s.d.; ***p < 0.001, ****p < 0.0001 (ordinary One-way ANOVA).
CAL51 WT and CAL51 MUS81^–/– cells were seeded in a 96-well plate 24 h before the treatment. Alternatively, cells were transfected with 30 nM siRNA (control or MUS81) for 48 h before treatment. Subsequently, cells were treated with respective inhibitors for 48 h. During the last 16 h, cytochalasin B (Sigma-Aldrich) was added to the cells at a concentration of 1.25 μg/mL. […] Images were acquired using a Nikon Eclipse fluorescence microscope and analyzed using ImageJ software.

Data set [2] has as its system U2OS cells. The data set is described as follows: γH2AX foci immunofluorescence, 72 h treatment. The format is cell-based. The protocol:
6 MUS81 inhibition induces persistent DNA damage leading to reduced cell survival. (A) U2OS cells were treated with DMSO, cisplatin as a positive control, control or MUS81-targeting siRNA, MU262, MU876, and their negative control counterparts at the indicated concentrations for 72 h. Representative images show staining of a DNA damage marker γH2AX in green with counterstaining of DAPI in blue. The concentration of all inhibitors shown in (A) is 2.5 μM. (B) DNA damage was assessed by quantifying γH2AX foci per nucleus from (A) using CellProfiller software. The graph represents percentage (%) of cells with ≥20 γH2AX foci per nucleus across different concentrations of inhibitors. n = 3; error bars represent s.d. (C) Indicated number of U2OS cells was transfected with a nontargeting siRNA (siCon) or MUS81-targeting siRNA (siMUS81) seeded for a CFA. […] (D) Quantification of (C), error bars represent s.d.; ****p <0.0001 (unpaired, two-tailed t-test). […] (F) Quantification of (E) using a nonlinear regression fitting model. n = 3. […] (H) Quantification of (G) using a nonlinear regression fitting model. n = 3.
U2OS, CAL51 WT, and CAL51 MUS81^–/– cells (10,000) were seeded in a 96-well plate 24 h before the treatment. […] The γH2AX foci were detected and quantified using CellProfiler (Broad Institute of MIT and Harvard). The analyzed data were plotted in RStudio software using R programming language.

Data set [3] is described as follows: Microsomal stability. The format is in vitro ADME.

Regarding `CCc1nn2c(O)c(-c3nc4ccccc4[nH]3)nnc2c1-c1ccc(F)cc1` [Compound 18, 3-(1H-Benzo[d]imidazole-2-yl)-7-ethyl-8-(4-fluorophenyl)pyrazolo[5,1-c][1,2,4]triazin-4-ol], the micronuclei formation result in data set [1] was “significantly increased micronuclei formation”. Moreover, the “γH2AX (DNA damage) foci” value in data set [2] is recorded as “significantly increased the number of DNA damage foci in a concentration-dependent manner”. Further, the microsomal stability entry in data set [3] is given as “good microsomal stability”.
For `Cc1cc(=O)[nH]c(-n2nc(-c3ccccc3)cc2NC(=O)c2cc(-c3ccccc3)on2)n1` [Compound 32, N-(1-(4-Methyl-6-oxo-1,6-dihydropyrimidin-2-yl)-3-phenyl-1H-pyrazol-5-yl)-5-phenylisoxazole-3-carboxamide], the micronuclei formation entry in data set [1] is “significantly increased micronuclei formation”. Also, in data set [2], the “γH2AX (DNA damage) foci” value is recorded as “significantly increased the number of DNA damage foci in a concentration-dependent manner”. For the same molecule, in data set [3], the microsomal stability result was “good microsomal stability”.

Source of the values: PMC12990037, “Discovery of Two Structurally Distinct Classes of Inhibitors Targeting the Nuclease MUS81 and Enhancing Efficacy of Chemotherapy in Cancer Cells” (Journal of Medicinal Chemistry, 2026).
